Experimental data as given in patent US8546608B2, “Proteasome inhibitors and methods of using the same” (Cephalon, Inc., priority 2003, dated 2013).
Where a name gives a salt, the structure may show the parent alone. Read-outs that look alike come from different tables or passages of the source.

Columns and labels:
[1] = biological target: T1, 20S Human Erythrocyte Proteasome (HEP) (Homo sapiens, UniProt P20618+P28074); assay: Chymotrypsin-like activity of 20S Human Erythrocyte Proteasome (HEP), IC50 determination; type: biochemical; details: assay of Example C, inhibition of HEP
T1 construct: 20S Human Erythrocyte Proteasome (HEP), purchased from Immatics Biotechnologies Inc; purchased Immatics Biotechnologies Inc., Tübingen, Germany; host or cells: human erythrocytes (natural source)
Summary of the method: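 20S proteasome at 0.2 μg/mL (about 0.6 nM catalytic sites) in 20 mM Tris with 0.04% SDS, preincubated 15 min at 37° C with inhibitor before Suc-LLVY-AMC (100 μM final). AMC fluorescence read in the linear range; triplicates, IC50 from concentration series.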

[2] = biological target: T2, proteasome in Molt-4 cells (human leukemia) (Homo sapiens, UniProt P20618+P28074); type: cell-based
T2 sequence (P28074 60-263): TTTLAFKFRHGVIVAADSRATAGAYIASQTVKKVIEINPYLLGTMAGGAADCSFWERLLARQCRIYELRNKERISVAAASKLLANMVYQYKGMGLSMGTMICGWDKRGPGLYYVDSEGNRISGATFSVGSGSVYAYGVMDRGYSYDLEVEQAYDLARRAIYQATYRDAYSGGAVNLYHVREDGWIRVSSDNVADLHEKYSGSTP
T2 sequence (P20618 29-241): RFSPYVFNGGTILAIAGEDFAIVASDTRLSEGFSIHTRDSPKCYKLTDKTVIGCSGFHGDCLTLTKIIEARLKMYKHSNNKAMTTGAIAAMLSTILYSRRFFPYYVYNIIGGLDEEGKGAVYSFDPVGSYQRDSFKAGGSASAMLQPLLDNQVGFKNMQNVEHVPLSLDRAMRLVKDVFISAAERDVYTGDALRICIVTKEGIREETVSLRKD
Summary of the method: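 Intact Molt-4 cells (6×10^6 cells/mL) in HEPES-buffered saline were preincubated with inhibitor 15 min at 37 °C, then given cell-permeable MeOSuc-FLF-AFC at 25 μM final.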

[3] = assay of Example E, inhibition of MOLT4; read-out: MOLT4 (EC50)

IC50 [1] [nM] | EC50 [2, 3] [nM] | Compound | EC50 ([2]; read-out: MOLT4 (EC50); assay of Example E, inhibition of MOLT4) [nM]
< 10 | > 10000 | CC(C)C[C@H](NC(=O)[C@H](CCCNC(=N)N[N+](=O)[O-])NC(=O)CSCc1ccccc1)B(O)O [E.2.49, Boronic acid, [(1R)-1-[[(2S)-5-[[imino(nitroamino)methyl]amino]-2-[[2-[(phenylmethyl)sulfanyl]acetyl]amino]-1-oxopentyl]amino]-3-methylbutyl]] | 
< 10 | 2000 to 10000 | CC(C)C[C@H](NC(=O)[C@H](CCCNC(=N)N[N+](=O)[O-])NC(=O)CC1CCCCCC1)B(O)O [E.2.29, Boronic acid, [(1R)-1-[[(2S)-5-[[imino(nitroamino)methyl]amino]-2-[(2-cycloheptylacetyl)amino]-1-oxopentyl]amino]-3-methylbutyl]] | 
< 10 | > 10000 | CC(C)C[C@H](NC(=O)[C@H](CCCNC(=N)N[N+](=O)[O-])NC(=O)CCS(=O)(=O)c1ccccc1)B(O)O [E.2.70, Boronic acid, [(1R)-1-[[(2S)-5-[[imino(nitroamino)methyl]amino]-2-[[3-(benzenesulfonyl)propanoyl]amino]-1-oxopentyl]amino]-3-methylbutyl]] | 
< 10 | < 200 | CCCCCC/C=C/C(=O)N[C@@H](CCCNC(=N)N[N+](=O)[O-])C(=O)N[C@@H](CC(C)C)B1O[C@@H]2C[C@@H]3C[C@@H](C3(C)C)[C@]2(C)O1 [D.3.96, Non-2-enoic acid amide,N-[(1S)-1-[[[(1R)-1-[(3aS,4S,6S,7aR)-hexahydro-3a,5,5-trimethyl-4,6-methano-1,3,2-benzodioxaborol-2-yl]-3-methylbutyl]amino]carbonyl]-4-[[imino(nitroamino)methyl]amino]butyl]] | 
< 10 | < 200 | CCCCC[C@H]1CC[C@H](C(=O)N[C@@H](CCCNC(=N)N[N+](=O)[O-])C(=O)N[C@@H](CC(C)C)B2O[C@@H]3C[C@@H]4C[C@@H](C4(C)C)[C@]3(C)O2)CC1 [D.3.11, trans-4-Pentylcyclohexanecarboxamide, N-[(1S)-1-[[[(1R)-1-[(3aS,4S,6S,7aR)-hexahydro-3a,5,5-trimethyl-4,6-methano-1,3,2-benzodioxaborol-2-yl]-3-methylbutyl]amino]carbonyl]-4-[[imino(nitroamino)methyl]amino]butyl]] | 
< 10 | < 200 | CC(C)C[C@H](NC(=O)[C@H](CCCNC(=N)N[N+](=O)[O-])NC(=O)CCCCCCCCCCCNC(=O)OC(C)(C)C)B1O[C@@H]2C[C@@H]3C[C@@H](C3(C)C)[C@]2(C)O1 [D.2.4, 12-[(1,1-dimethylethoxy)carbonylamino] dodecanamide,N-[(1S)-1-[[[(1R)-1-[(3aS,4S,6S,7aR)-hexahydro-3a,5,5-trimethyl-4,6-methano-1,3,2-benzodioxaborol-2-yl]-3-methylbutyl]amino]carbonyl]-4-[[imino(nitroamino)methyl]amino]butyl]-] | 
< 10 | < 200 | CCCC/C=C/C(=O)N[C@@H](CCCNC(=N)N[N+](=O)[O-])C(=O)N[C@@H](CC(C)C)B1O[C@@H]2C[C@@H]3C[C@@H](C3(C)C)[C@]2(C)O1 [D.3.66, Hept-2-enamide,N-[(1S)-1-[[[(1R)-1-[(3aS,4S,6S,7aR)-hexahydro-3a,5,5-trimethyl-4,6-methano-1,3,2-benzodioxaborol-2-yl]-3-methylbutyl]amino]carbonyl]-4-[[imino(nitroamino)methyl]amino]butyl]] | 
< 10 | 200 to 2000 | CC(C)C[C@H](NC(=O)[C@H](CCCNC(=N)N[N+](=O)[O-])NC(=O)CCCC(=O)c1ccccc1)B1O[C@@H]2C[C@@H]3C[C@@H](C3(C)C)[C@]2(C)O1 [D.3.105, 5-Oxo-5-phenyl-pentanamide,N-[(1S)-1-[[[(1R)-1-[(3aS,4S,6S,7aR)-hexahydro-3a,5,5-trimethyl-4,6-methano-l,3,2-benzodioxaborol-2-yl]-3-methylbutyl]amino]carbonyl]-4-[[imino(nitroamino)methyl]amino]butyl]] | 
< 10 | 2000 to 10000 | CCCC/C=C/C(=O)N[C@@H](CCCNC(=N)N[N+](=O)[O-])C(=O)N[C@@H](CC(C)C)B(O)O [E.2.21, Boronic acid, [(1R)-1-[[(2S)-5-[[imino(nitroamino)methyl]amino]-2-[(hept-2-enoyl)amino]-1-oxopentyl]amino]-3-methylbutyl]] | 
< 10 | > 10000 | CC(C)C[C@H](NC(=O)[C@H](CCCNC(=N)N[N+](=O)[O-])NC(=O)Cc1ccccc1)B(O)O [E.2.36, Boronic acid, [(1R)-1-[[(2S)-5-[[imino(nitroamino)methyl]amino]-2-[(2-phenylacetyl)amino]-1-oxopentyl]amino]-3-methylbutyl]] | 
< 10 | < 200 | CCCCc1ccc(C(=O)N[C@@H](CNC(=O)c2cccs2)C(=O)N[C@@H](CC(C)C)B(O)O)cc1 [E.5.7, Boronic acid, [(1R)-1-[[(2S)-3-[(thien-2-ylcarbonyl)amino]-2-[(4-butylbenzoylamino)]-1-oxopropyl]amino]-3-methylbutyl]] | 
< 10 | < 200 | CC(C)C[C@H](NC(=O)[C@H](CCCNC(=N)N[N+](=O)[O-])NC(=O)CCCNC(=O)OCC1c2ccccc2-c2ccccc21)B1O[C@@H]2C[C@@H]3C[C@@H](C3(C)C)[C@]2(C)O1 [D.3.122, [[[(9H-fluoren-9-yl)methoxy]carbonyl]amino]butanamide, N-[(1S)-1-[[[(1R)-1-[(3aS,4S,6S,7aR)-hexahydro-3a,5,5-trimethyl-4,6-methano-1,3,2-benzodioxaborol-2-yl]-3-methylbutyl]amino]carbonyl]-4-[[imino(nitroamino)methyl]amino]butyl]] | 
< 10 | < 200 | CCCOc1cccc(C(=O)N[C@H](C(=O)N[C@@H](CC(C)C)B(O)O)[C@@H](C)O)c1 [E.3.10, Boronic acid, [(1R)-1-[[(2S,3R)-3-hydroxy-2-[(3-propoxy-benzoyl)amino]-1-oxobutyl]amino]-3-methylbutyl]] | 
< 10 | > 10000 | CC(C)C[C@H](NC(=O)[C@H](CCCNC(=N)N[N+](=O)[O-])NC(=O)C1CCCCC1)B(O)O [E.2.14, Boronic acid, [(1R)-1-[[(2S)-5-[[imino(nitroamino)methyl]amino]-2-[(cyclohexanecarbonyl)amino]-1-oxopentyl]amino]-3-methylbutyl]] | 
< 10 | < 200 | CC(C)C[C@H](NC(=O)[C@H](CCCN/C(N)=N/[N+](=O)[O-])NC(=O)C(CCCCCCCCN1C(=O)c2ccccc2C1=O)C1CCCC1)B(O)O (stereo partly drawn) [E.1.21] | 
< 100 | 200 to 2000 | CCCCc1ccc(C(=O)N[C@H](C(=O)N[C@@H](CC(C)C)B2OC3(CCCCC3)C3(CCCCC3)O2)[C@@H](C)O)cc1 [F.2.1, 4-Butylbenzamide, N-[(1S,2R)-1-[[[(1R)-1-[13,15-dioxa-14-bora-dispiro[5.0.5.3]pentadec-14-yl]-3-methylbutyl]amino]carbonyl]-2-hydroxypropyl]-] | 
< 10 | > 10000 | CC(C)C[C@H](NC(=O)[C@H](CCCNC(=N)N[N+](=O)[O-])NC(=O)CCc1cccs1)B(O)O [E.1.12, Boronic acid, [(1R)-1-[[(2S)-5-[[imino(nitroamino)methyl]amino]-2-[(3-thiophen-2-yl-propanoyl)amino]-1-oxopentyl]amino]-3-methylbutyl]] | 
< 10 | > 10000 | COc1ccc(CC(=O)N[C@@H](CCCNC(=N)N[N+](=O)[O-])C(=O)N[C@@H](CC(C)C)B(O)O)cc1 [E.2.37, Boronic acid, [(1R)-1-[[(2S)-5-[[imino(nitroamino)methyl]amino]-2-[[2-(4-methoxyphenyl)acetyl]amino]-1-oxopentyl]amino]-3-methylbutyl]] | 
< 10 | < 200 | CCCCCCCCCC(=O)N[C@@H](CCCNC(=N)N[N+](=O)[O-])C(=O)N[C@@H](CC(C)C)B(O)O [E.2.1, Boronic acid, [(1R)-1-[[(2S)-5-[[imino(nitroamino)methyl]amino]-2-[(1-oxodecyl)amino]-1-oxopentyl]amino]-3-methylbutyl]] | 

Compound | IC50 [1] [nM] | EC50 [2, 3] [nM] | EC50 ([2]; read-out: MOLT4 (EC50); assay of Example E, inhibition of MOLT4) [nM]
CC(C)C[C@H](NC(=O)[C@H](CCCNC(=N)N[N+](=O)[O-])NC(=O)Cc1ccccc1Cl)B(O)O [E.1.13, Boronic acid, [(1R)-1-[[(2S)-5-[[imino(nitroamino)methyl]amino]-2-[2-(2-chlorophenyl)acetyl]amino]-3-methylbutyl] HCl salt] | < 10 |  | 2000 to 10000
CCCCOc1ccc(S(=O)(=O)N[C@@H](CCCNC(=N)N[N+](=O)[O-])C(=O)N[C@@H](CC(C)C)B2O[C@@H]3C[C@@H]4C[C@@H](C4(C)C)[C@]3(C)O2)cc1 [D.4.6, 4-Butoxyenzenesulfonamide, N-[(1S)-1-[[[(1R)-1-[(3aS,4S,6S,7aR)-hexahydro-3a,5,5-trimethyl-4,6-methano-1,3,2-benzodioxaborol-2-yl]-3-methylbutyl]amino]carbonyl]-4-[[imino(nitroamino)methyl]amino]butyl]] | < 100 | < 200 | 
